Data taken from EP4725957A1, “GROUP OF CYCLIC ALKALINE LIPOPEPTIDE COMPOUNDS, AND PREPARATION METHOD THEREFOR AND USE THEREOF” (Institute of Medicinal Biotechnology, Chinese Academy of …, priority 2023, dated 2024).
In brackets after ≈: the same amount, converted by molar mass. Bridge positions count the residues as written; N and C are the ends. Square brackets hold non-standard residues; d marks the D form. Peptide text beside a SMILES is read from it. * marks the point of attachment. Nonanoyl = CCCCCCCCC(=O)*; X1 = CC[C@H](C)CCCCC(=O)*; Heptanoyl = CCCCCCC(=O)*; Octanoyl = CCCCCCCC(=O)*; dDap = NC[C@@H](N)C(=O)O; Dab = NCC[C@H](N)C(=O)O; Dap = NC[C@H](N)C(=O)O

Key:
Format in all cases: cell-based
[1] = system: Escherichia coli ATCC BAA-2523; conditions: ATCC BAA-2523
Procedure: (§1) The minimal inhibitory concentration (MIC) was determined by the broth microdilution method according to the recommended procedures of the Clinical and Laboratory Standards Institute (CLSI).
(§2) An appropriate amount of the cyclic lipopeptide compounds prepared in Examples 1-120 and the reference standards were weighed and dissolved in sterile pure water. An appropriate volume of the mother solution was subjected to ten-fold dilution with sterile Mueller-Hinton (MH) broth to a concentration of 0.256 mg/mL. Half of the drug solution was aliquoted into 96-well reagent reservoirs, while the other half was subjected to two-fold serial dilution with sterile MH broth before being transferred into deep-well reagent reservoirs. The above steps were repeated, so that the drug concentrations in the reagent reservoirs were adjusted to 128, 64, 32, 16, 8, 4, 2, 1, 0.5, 0.25, 0.125 and 0.06 mg/L in sequence, and all solutions were prepared and used immediately. Several colonies were picked from agar plates cultured for 18-24 h and directly suspended in sterile normal saline, and the concentration of the bacterial suspension was adjusted to 0.5 McFarland units. The calibrated bacterial suspension was diluted with MH broth to a concentration of (4-8) × 10^5 colony-forming units per milliliter (CFU/mL) and prepared and used immediately. A volume of 100 µL of the aforementioned compounds of the present disclosure (e.g., the compounds prepared in the examples) and reference solutions at different concentrations was separately pipetted into wells 1 to 12 of sterile 96-well polystyrene plates, and an additional 100 µL of the aforementioned inoculum was added to each well. The final concentrations of the samples in the wells were adjusted to 64, 32, 16, 8, 4, 2, 1, 0.5, 0.25, 0.125, 0.06 and 0.03 mg/L, respectively, and the final concentration of the inoculum in each well was (2-4) × 10^5 CFU/mL. Additional growth control wells were set up, each containing 100 µL of the inoculum and 100 µL of sterile MH broth. The test substances and inocula in all wells were mixed thoroughly and then sealed. The inoculated 96-well plates were incubated in an incubator at 35-37°C for 16-20 h.
(§3) The strains used for the antibacterial activity assay were obtained from the American Type Culture Collection (ATCC) and clinical isolates.
(§4) The strains employed for the antibacterial activity assay included Escherichia coli ATCC BAA-2523, ATCC BAA-2340 (KPC), Klebsiella pneumoniae KPN+19-15, ATCC BAA-1705 (KPC), Pseudomonas aeruginosa PAE19-3, ATCC 27853, Acinetobacter baumannii ABA19-1, and NCTC 13304 (OXA-27).

[2] = system: Klebsiella pneumoniae ATCC BAA-1705 (KPC); conditions: ATCC BAA-1705
Procedure: as §1, §2, §3, §4

[3] = system: Escherichia coli ATCC BAA-2340 (KPC); conditions: ATCC BAA-2340
Procedure: as §1, §2, §3, §4

[4] = system: Pseudomonas aeruginosa ATCC 27853; conditions: ATCC 27853
Procedure: as §1, §2, §3, §4

[5] = system: Acinetobacter baumannii NCTC 13304 (OXA-27); conditions: NCTC 13304
Procedure: as §1, §2, §3, §4

[6] = system: Acinetobacter baumannii ABA19-1; conditions: ABA19-1
Procedure: as §1, §2, §3, §4

[7] = system: Pseudomonas aeruginosa PAE19-3; conditions: PAE19-3
Procedure: as §1, §2, §3, §4

[8] = system: Klebsiella pneumoniae KPN+19-15; conditions: KPN+19-15
Procedure: as §1, §2, §3, §4

[9] = Nephrotoxicity assay: in vitro cytotoxicity of HK-2 cells by CCK-8 assay; conditions: human, HK-2 cells (human renal), 72 h incubation with drug-containing medium
Procedure: In vitro cytotoxicity detection of HK-2 cells was performed by the CCK-8 assay.
The culture medium for human renal HK-2 cells was a complete RPMI-1640 medium (Invitrogen) supplemented with 10% fetal bovine serum (FBS, Gibco). The cryopreservation solution was composed of 90% FBS and 10% dimethyl sulfoxide (DMSO), and the cells were preserved long-term in liquid nitrogen. Cells were cultured in a sterile incubator with a humidified atmosphere containing 5% CO2 at 37°C. When the cell density reached 70%-80%, cell digestion and subculture were conducted. The cyclic lipopeptide compounds prepared in Examples 1-120 were weighed and dissolved in sterile water to prepare a mother solution with a concentration of 1 mg/mL. Drug-containing culture media were then formulated, with the final concentrations set as 500, 250, 200, 100, 50, 25, and 12.5 µg/mL, respectively. Cells were adjusted to a density of 5 × 10^4 cells/mL and seeded into 96-well plates, with 100 µL of cell suspension added to each well. After stable incubation for 24 h, the original medium was replaced with the prepared drug-containing medium, and the plates were incubated in the incubator for an additional 72 h. The medium was gently aspirated, and 100 µL of blank medium containing 10% CCK-8 was added to each well. After incubation in the incubator for 3 h, the optical density (OD) values at 450 nm were measured using a BIOTEK microplate reader. The experiment was repeated three times. For each replicate, polymyxin B was set as the positive drug, and a drug-free blank group was established as the control. The cell viability (%) was calculated by the formula: Cell viability (%) = [(OD of drug-treated group - OD of zero-setting) / (OD of drug-free group - OD of zero-setting)] × 100%. The half-maximal inhibitory concentration (IC50) values were calculated through logarithmic regression analysis.
The cells used for the nephrotoxicity assay were obtained from the ATCC ( American Type Culture Collection). The Cell Counting Kit-8 (CCK-8) used in the assay was supplied by Beyotime Biotechnology Co., Ltd.

SMILES	MIC [1] [µg/mL]	MIC [2] [µg/mL]	MIC [3] [µg/mL]	MIC [4] [µg/mL]	MIC [5] [µg/mL]	MIC [6] [µg/mL]	MIC [7] [µg/mL]	MIC [8] [µg/mL]	IC50 at 72 h [9] [µg/mL]
CC[C@H](C)CCCCC(=O)N[C@@H](CCN)C(=O)N[C@H](C(=O)N[C@H](CN)C(=O)N[C@H]1CCNC(=O)[C@H]([C@@H](C)O)NC(=O)[C@H](CCN)NC(=O)[C@H](CCN)NC(=O)[C@H]([C@@H](C)O)NC(=O)[C@@H](Cc2ccccc2)NC(=O)[C@H](CCN)NC1=O)[C@@H](C)O [Compound 1, (S)-6-methyloctanoyl-Dab-Thr-D-Dap-ring(4-10)[Dab-Dab-D-Phe-Thr-Dab-Dab-Thr]] (X1-[Dab]T[dDap][Dab][Dab][dF]T[Dab][Dab]T; lactam 4-C)	≤0.03	≤0.03	≤0.03	0.03 (≈ 0.0255 µM)	≤0.03	≤0.03	0.125 (≈ 0.106 µM)	≤0.03	> 500
CCCCCCCC(=O)N[C@@H](CCN)C(=O)N[C@H](C(=O)N[C@H](CN)C(=O)N[C@H]1CCNC(=O)[C@H]([C@@H](C)O)NC(=O)[C@H](CCN)NC(=O)[C@H](CCN)NC(=O)[C@H]([C@@H](C)O)NC(=O)[C@@H](Cc2ccccc2)NC(=O)[C@H](CCN)NC1=O)[C@@H](C)O [Compound 3, Octanoyl-Dab-Thr-D-Dap-ring(4-10)[Dab-Dab-D-Phe-Thr-Dab-Dab-Thr]] (Octanoyl-[Dab]T[dDap][Dab][Dab][dF]T[Dab][Dab]T; lactam 4-C)	≤0.03	≤0.03	≤0.03	0.03 (≈ 0.0258 µM)	≤0.03	≤0.03	0.25 (≈ 0.215 µM)	≤0.03	> 500
CCCCCCC(=O)N[C@@H](CCN)C(=O)N[C@H](C(=O)N[C@H](CN)C(=O)N[C@H]1CCNC(=O)[C@H]([C@@H](C)O)NC(=O)[C@H](CCN)NC(=O)[C@H](CCN)NC(=O)[C@H]([C@@H](C)O)NC(=O)[C@@H](Cc2ccccc2)NC(=O)[C@H](CCN)NC1=O)[C@@H](C)O [Compound 4, Heptanoyl-Dab-Thr-D-Dap-ring(4-10)[Dab-Dab-D-Phe-Thr-Dab-Dab-Thr]] (Heptanoyl-[Dab]T[dDap][Dab][Dab][dF]T[Dab][Dab]T; lactam 4-C)	0.03 (≈ 0.0261 µM)	0.03 (≈ 0.0261 µM)	0.03 (≈ 0.0261 µM)	0.03 (≈ 0.0261 µM)	0.03 (≈ 0.0261 µM)	0.03 (≈ 0.0261 µM)	0.25 (≈ 0.218 µM)	0.03 (≈ 0.0261 µM)	> 500
CCCCCCCCC(=O)N[C@@H](CCN)C(=O)N[C@H](C(=O)N[C@H](CN)C(=O)N[C@H]1CCNC(=O)[C@H]([C@@H](C)O)NC(=O)[C@H](CCN)NC(=O)[C@H](CCN)NC(=O)[C@H]([C@@H](C)O)NC(=O)[C@@H](Cc2ccccc2)NC(=O)[C@H](CCN)NC1=O)[C@@H](C)O [Compound 5, Nonanoyl-Dab-Thr-D-Dap-ring(4-10)[Dab-Dab-D-Phe-Thr-Dab-Dab-Thr]] (Nonanoyl-[Dab]T[dDap][Dab][Dab][dF]T[Dab][Dab]T; lactam 4-C)	0.06 (≈ 0.051 µM)	0.06 (≈ 0.051 µM)	0.06 (≈ 0.051 µM)	0.06 (≈ 0.051 µM)	0.06 (≈ 0.051 µM)	0.06 (≈ 0.051 µM)	0.5 (≈ 0.425 µM)	0.06 (≈ 0.051 µM)	380 ± 30.5 (≈ 323 µM)
CC[C@H](C)CCCCC(=O)N[C@@H](CCN)C(=O)N[C@H](C(=O)N[C@@H](CN)C(=O)N[C@H]1CCNC(=O)[C@H]([C@@H](C)O)NC(=O)[C@H](CCN)NC(=O)[C@H](CCN)NC(=O)[C@H]([C@@H](C)O)NC(=O)[C@@H](Cc2ccccc2)NC(=O)[C@H](CCN)NC1=O)[C@@H](C)O [Compound 6, (S)-6-methyloctanoyl-Dab-Thr-Dap-ring(4-10)[Dab-Dab-D-Phe-Thr-Dab-Dab-Thr]] (X1-[Dab]T[Dap][Dab][Dab][dF]T[Dab][Dab]T; lactam 4-C)	≤0.03	≤0.03	≤0.03	0.03 (≈ 0.0255 µM)	≤0.03	≤0.03	0.125 (≈ 0.106 µM)	≤0.03	> 500
CCCCCCCC(=O)N[C@@H](CCN)C(=O)N[C@H](C(=O)N[C@@H](CN)C(=O)N[C@H]1CCNC(=O)[C@H]([C@@H](C)O)NC(=O)[C@H](CCN)NC(=O)[C@H](CCN)NC(=O)[C@H]([C@@H](C)O)NC(=O)[C@@H](Cc2ccccc2)NC(=O)[C@H](CCN)NC1=O)[C@@H](C)O [Compound 8, Octanoyl-Dab-Thr-Dap-ring(4-10)[Dab-Dab-D-Phe-Thr-Dab-Dab-Thr]] (Octanoyl-[Dab]T[Dap][Dab][Dab][dF]T[Dab][Dab]T; lactam 4-C)	≤0.03	≤0.03	≤0.03	0.125 (≈ 0.107 µM)	≤0.03	≤0.03	0.25 (≈ 0.215 µM)	≤0.03	> 500
CCCCCCC(=O)N[C@@H](CCN)C(=O)N[C@H](C(=O)N[C@@H](CN)C(=O)N[C@H]1CCNC(=O)[C@H]([C@@H](C)O)NC(=O)[C@H](CCN)NC(=O)[C@H](CCN)NC(=O)[C@H]([C@@H](C)O)NC(=O)[C@@H](Cc2ccccc2)NC(=O)[C@H](CCN)NC1=O)[C@@H](C)O [Compound 9, Heptanoyl-Dab-Thr-Dap-ring(4-10)[Dab-Dab-D-Phe-Thr-Dab-Dab-Thr]] (Heptanoyl-[Dab]T[Dap][Dab][Dab][dF]T[Dab][Dab]T; lactam 4-C)	0.03 (≈ 0.0261 µM)	0.03 (≈ 0.0261 µM)	0.03 (≈ 0.0261 µM)	0.125 (≈ 0.109 µM)	0.03 (≈ 0.0261 µM)	0.03 (≈ 0.0261 µM)	0.25 (≈ 0.218 µM)	0.03 (≈ 0.0261 µM)	> 500
